The values that follow come from PMC5622107, “Small molecule inhibition of cGAS reduces interferon expression in primary macrophages from autoimmune mice” (Nature Communications, 2017).

For data set [1], the target named is T1, mouse cGAS (Mus musculus, UniProt Q8C6L5).
T1 construct: recombinant full-length mouse cGAS in reaction buffer; His6-SUMO (N, cleaved yes); made in house; host or cells: E. coli BL21(DE3) RIL
Kind of data set: RapidFire mass spectrometry (RF-MS) cGAS enzymatic assay, cGAMP product formation. The format is biochemical. To be noted: for IC50: read-out: IC50. An outline of the steps: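 Reactions were stopped with 0.5% formic acid, then ATP, GTP and cGAMP were separated by solid-phase extraction on graphitic carbon and detected by negative-ion MS. Product formation (%) = AUCcGAMP×100/(AUCcGAMP + ½AUCATP + ½AUCGTP). Percent inhibition was normalized to positive and negative controls.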

Data set [2] has as its target T2, m-cGAS (Mus musculus, UniProt Q8C6L5).
T2 construct: recombinant full-length mouse cGAS in reaction buffer; His6-SUMO (N, cleaved yes); made in house; host or cells: E. coli BL21(DE3) RIL
Kind of data set: Kinetics of m-cGAS in the presence of RU.365 (RF-MS). The class given is biochemical. How it is done:
Kinetics parameters of cGAMP formation were determined in the reaction mixtures carried out in 20 μl volumes in 384 small volume deep well polypropylene plates. The final concentration of m-cGAS enzyme and dsDNA were 60 nM and 300 nM, respectively. To determine if RU.365 was competitive against ATP and/or GTP, different concentrations of RU.365 ranging from 0.8 µM to 6.3 µM were tested, keeping one substrate fixed at 300 µM while varying the other one. Apparent K m ^app and apparent V max ^app values were also calculated in the presence and absence of the small molecule. RU.365 was diluted by half in DMSO for a total of four dilutions where the highest final concentration in the assay was 6.3 μM. Ten microliters of reaction buffer composed of 20 mM Tris-HCl pH 7.4, 150 mM NaCl, 5 mM MgCl2, and 0.01% Tween-20 were dispensed per well using a Thermo Multidrop Combi dispenser (Thermo Scientific). The liquid was collected at the well bottom by centrifugation for 30 s at 180×g. In all, 0.1 μl of RU.365 serially diluted in DMSO were dispensed with a Janus 384 MDT NanoHead (PerkinElmer).
Each reaction containing a variable substrate concentration was performed in a different plate. A separate column containing different amounts of cGAMP was also included in each plate in order to construct the calibration curve and calculate the µmoles of product formed. Twenty different master mix solutions were prepared in reaction buffer supplemented with 2 mM DTT and 1.2 µM dsDNA. Of these, Ten master mix solutions were prepared with different concentrations of GTP ranging from 2.36 µM to 1.2 mM while keeping the concentration of ATP fixed at 1.2 mM and vice versa for the other 10 master mix solutions. Five microliters of these solutions with variable substrate concentration were added for each reaction. Finally, the reaction was started by adding 5 μl of 0.24 μM recombinant full-length mouse cGAS in reaction buffer supplemented with 2 mM DTT to each well of the plate followed by centrifugation for 30 s at 180×g and incubation for 120 min at room temperature. The reaction was stopped by addition of 60 μl of 0.5% (v/v) formic acid per well. The plates were centrifuged for 30 s at 180×g and sealed with a Velocity11 PlateLoc thermal plate sealer. To calculate IC50 log (inhibitor) vs. response, a variable slope non-linear fit from GraphPad Prism (7.01) was used, using three replicate experiments; error bars represent SD. The kinetics parameters were obtained fitting the curves to an allosteric sigmoidal nonlinear fit using the same software.

Data set [3] deals with RAW 264.7. Nature of the data set: Cytotoxicity, CellTiter-Glo ATP quantitation at 72 h. The format is cell-based. Particulars: for LD50: RAW macrophages, 72 h, percent viability. How it is done:
Small-molecule compounds were serially diluted to concentrations spanning the range tested in the response curves were added to 6.7 × 10^5 RAW-Blue macrophages plated 16 h prior in 96-well dishes, then harvested 72 h after compound addition. ATP was measured using CellTiter Glo Viability Assay (Promega) using 50 µM Tamoxifen (Sigma) as a positive control for cytotoxicity. Viability values were generated using vehicle (DMSO) or the first dose (RU.521) as 100% and Tamoxifen as 0%. Outliers were removed as described previously.

[4] abbreviates: Supplementary Table 3, analogs more potent than RU166365.
Setting [5] is: varying ATP, GTP fixed, RU.365 0.8 µM.
Setting [6] is: varying ATP, GTP fixed, RU.365 1.6 µM.
The mark [7] stands for this setting: varying ATP, GTP fixed, RU.365 3.2 µM.
Where [8] appears, read: varying ATP, GTP fixed, RU.365 6.3 µM.
Where [9] appears, read: varying GTP, ATP fixed, RU.365 0.8 µM.
The mark [10] stands for this setting: varying GTP, ATP fixed, RU.365 1.6 µM.
Where [11] appears, read: varying GTP, ATP fixed, RU.365 3.2 µM.
[12] abbreviates: varying GTP, ATP fixed, RU.365 6.3 µM.

Read-outs that look alike come from different tables or passages of the source.

T1 sequence (Q8C6L5 whole entry): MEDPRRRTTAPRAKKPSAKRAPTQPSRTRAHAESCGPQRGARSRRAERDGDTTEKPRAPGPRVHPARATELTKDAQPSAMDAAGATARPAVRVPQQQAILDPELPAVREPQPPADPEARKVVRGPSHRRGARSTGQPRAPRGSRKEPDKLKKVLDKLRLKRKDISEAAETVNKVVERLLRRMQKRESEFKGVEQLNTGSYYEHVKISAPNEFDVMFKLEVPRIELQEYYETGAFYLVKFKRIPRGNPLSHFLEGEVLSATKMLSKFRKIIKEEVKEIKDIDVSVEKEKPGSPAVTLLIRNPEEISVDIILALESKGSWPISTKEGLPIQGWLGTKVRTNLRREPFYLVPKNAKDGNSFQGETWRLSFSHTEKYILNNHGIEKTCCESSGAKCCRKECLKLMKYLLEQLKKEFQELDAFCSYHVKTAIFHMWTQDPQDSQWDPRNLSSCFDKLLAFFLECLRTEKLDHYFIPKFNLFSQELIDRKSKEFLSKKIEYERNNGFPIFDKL
T2 sequence (Q8C6L5 whole entry): as above

A word on the IC50: it is the point on the concentration scale where inhibition reaches its midpoint. For orientation: inhibition means the relative decrease from the control value, in per cent. For orientation: kcat means the maximal rate divided by the concentration of active sites. In the case of `Cc1nn(-c2nc3ccccc3[nH]2)c(O)c1C1OC(=O)c2ccccc21` (stereo not drawn) [RU166365], the IC50 amounted to 0.52 µM in data set [1] (Supplementary Table 2, batch of compounds stored in the screening library) and 1.89 µM in data set [1] (setting [4]). Also, the inhibition at 12.5 µM in data set [1] (Supplementary Table 2, compound 12.5 µM, read-out: % inhibition at 12.5 µM) worked out at 99%. Besides, in data set [2], the “mechanism of inhibition against ATP or GTP” value is recorded as “non-competitive inhibitor”. The Kmapp was 109.1 µM in data set [2] (setting [5]); 115.5 µM in data set [2] (setting [6]); 113.4 µM in data set [2] (setting [7]); 107.3 µM in data set [2] (setting [8]); 77.8 µM in data set [2] (setting [9]); 89.7 µM in data set [2] (setting [10]). Further, the Kmapp is reported as 79.7 µM in data set [2] (setting [11]) and 89.4 µM in data set [2] (setting [12]). Further, the kcat was 0.283 s⁻¹ in data set [2] (setting [5]); 0.233 s⁻¹ in data set [2] (setting [6]); 0.152 s⁻¹ in data set [2] (setting [7]); 0.0717 s⁻¹ in data set [2] (setting [8]); 0.283 s⁻¹ in data set [2] (setting [9]); 0.233 s⁻¹ in data set [2] (setting [10]). The kcat in data set [2] (setting [11]) amounted to 0.152 s⁻¹; in data set [2] (setting [12]), 0.0717 s⁻¹. Also, the “LD50 over cellular IC50” value in data set [3] is 9 fold. In data set [3] (listed as RU.365), this compound yielded an LD50 of 45 µM.
`Cc1nn(-c2nc3ccc(Cl)c(Cl)c3[nH]2)c(O)c1C1OC(=O)c2ccccc21` (stereo not drawn) [RU320521, 3-[1-(6,7-dichloro-1H-benzimidazol-2-yl)-5-hydroxy-3-methyl-pyrazol-4-yl]-3H-isobenzofuran-1-one]: the IC50 in data set [1] (setting [4]) is 0.11 µM. The “effect of structural modification on cGAS inhibitory potency” value in data set [1] (compared with RU.365) is “increased inhibitory potency”. The improvement in potency in data set [1] (relative to RU.365) was 17 fold. Besides, the “LD50 over cellular IC50” value in data set [3] came out at 88 fold. In addition, the LD50 in data set [3] (listed as RU.521) was 62 µM.
